Laboratory results published in article PMC12166061, “Crystallographic fragment screening reveals ligand hotspots in TRIM21 PRY-SPRY domain” (Communications Chemistry, 2025).
Read-outs that look alike come from different tables or passages of the source.

What was measured:
Type in all cases: binding
[1] = target: T1, His-mTRIM21 PRYSPRY (Mus musculus, UniProt Q62191); assay: SPR fragment screening and dose response, mouse TRIM21 PRY-SPRY
T1 construct: mouse TRIM21 PRY-SPRY domain (residues V291-M470, UniProt-ID: Q62191); made in house; host or cells: E. coli BL21(DE3)
T1 sequence (Q62191 291-470): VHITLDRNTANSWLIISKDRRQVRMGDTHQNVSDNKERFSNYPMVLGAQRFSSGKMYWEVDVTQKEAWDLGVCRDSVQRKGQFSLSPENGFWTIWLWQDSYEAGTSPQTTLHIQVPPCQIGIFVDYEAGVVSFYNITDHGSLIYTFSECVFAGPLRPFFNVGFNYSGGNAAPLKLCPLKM
Experimental: (§1) His-mTRIM21 PRYSPRY and His-SUMO-hTRIM21 PRY-SPRY were immobilized onto flow channels (FC) FC2, FC3, and FC4 of a Series S sensor chip NTA (Cytiva). […] Proteins (10–20 µg mL^−1 in HBS-P+) were injected at 10 µL min^−1 to achieve response levels of 3500–4300 RU for mTRIM21 and 3600–4000 RU for hTRIM21. Flow channel 1 (FC1) was used as a reference surface. Surface deactivation and nickel stripping were achieved using 1 M ethanolamine and 350 mM ethylenediaminetetraacetic acid (EDTA), respectively.
(§2) Fragment screening was conducted by injecting 500 µM fragments diluted in running buffer (HBS-P+ with 1 mM TCEP and 2% (v/v) dimethyl sulfoxide (DMSO)) over all flow-channels for 30 s at 30 µL/min^−1. To account for surface drift, 50 µM of a control compound (Suramin) was injected every 15 fragment injections, and blank injections were performed every 5 fragments. Responses were analyzed by blank subtraction, reference subtraction (FC1), solvent correction, molecular weight adjustment, and drift correction using Biacore T200 Evaluation Software v3.2.1. The binding threshold for fragment hits was set based on the Suramin-binding response level.
The data was solvent-corrected, reference-subtracted (FC1), and blank-subtracted using the T200 Evaluation Software v3.2.1. Sensorgrams were subsequently replotted using Graphpad v.9 software.

[2] = target: T2, murine TRIM21 PRY-SPRY domain (Mus musculus, UniProt Q62191); assay: Differential scanning fluorimetry (DSF, ΔTm), mouse TRIM21 PRY-SPRY domain
T2 construct: mouse TRIM21 PRY-SPRY domain (residues V291-M470, UniProt-ID: Q62191); made in house; host or cells: E. coli BL21(DE3)
T2 sequence (Q62191 291-470): T1 sequence (Q62191 291-470)
Experimental: (§3) Briefly, recombinant murine and human TRIM21 PRY-SPRY domain at a concentration of 8 μM were mixed with 2 mM compound in their respective SEC buffer. SYPRO Orange (5000×, Invitrogen) was added as a fluorescence probe (1 µl per mL). Subsequently, temperature-dependent protein unfolding profiles were measured using the QuantStudio™ 5 realtime PCR machine (Thermo Fisher). Excitation and emission filters were set to 465 nm and 590 nm, respectively. The temperature was raised with a step rate of 3 °C per minute. Data points were analysed with the internal software (Thermal Shift SoftwareTM Version 1.4, Thermo Fisher) using the Boltzmann equation to determine the inflection point of the transition curve.

[3] = target: T3, His-SUMO-hTRIM21 PRY-SPRY (Homo sapiens, UniProt P19474); assay: SPR fragment screening, human TRIM21 PRY-SPRY
T3 construct: Human TRIM21 PRY-SPRY domain (residues V287-I465, UniProt-ID: P19474); made in house; host or cells: E. coli BL21(DE3)
Experimental: as §1, §2

[4] = target: T4, human TRIM21 PRY-SPRY domain (Homo sapiens, UniProt P19474); assay: Differential scanning fluorimetry (DSF, ΔTm), human TRIM21 PRY-SPRY domain
T4 construct: Human TRIM21 PRY-SPRY domain (residues V287-I465, UniProt-ID: P19474); His6 (N, cleaved yes); SUMO (N, cleaved yes); made in house; host or cells: E. coli BL21(DE3)
Experimental: as §3

[5] = single dose 500 µM fragment, relative response, suramin reference threshold 100 relative RU

T3 sequence (P19474 287-465): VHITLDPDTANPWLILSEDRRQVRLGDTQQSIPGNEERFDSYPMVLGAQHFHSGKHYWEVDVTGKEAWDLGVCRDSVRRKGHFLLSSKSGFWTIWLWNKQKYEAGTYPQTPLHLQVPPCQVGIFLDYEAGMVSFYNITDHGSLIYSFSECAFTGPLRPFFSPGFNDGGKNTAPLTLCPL
T4 sequence (P19474 287-465): as above

| Structure (SMILES) | SPR mTRIM21 (Response) [1, 5] | Tm-shift mTRIM21 ([2]; 2 mM compound, 8 μM protein) | SPR hTRIM21 (Response) [3, 5] | Tm-Shift hTRIM21 ([4]; 2 mM compound, 8 μM protein) | SPR mTRIM21 (Response) [1] | Tm-shift mTRIM21 [2] | SPR hTRIM21 (Response) [3] | Tm-Shift hTRIM21 [4] |
| --- | --- | --- | --- | --- | --- | --- | --- | --- |
| O=C(O)C1CCCN(C(=O)Cc2ccc(F)cc2)C1 (centres unmarked) [Fragment Z85893853] | 60.46 | -0.4 °C | 49.09 | -0.1 °C | – | – | – | – |
| CCC(=O)N1CCCC(NS(C)(=O)=O)C1 (centres unmarked) [Fragment Z405825414] | 27.91 | -0.2 °C | 27.61 | 0 °C | – | – | – | – |
| CS(=O)(=O)Cc1nc2ccccc2[nH]1 [Fragment Z126932614] | 65.26 | -0.1 °C | 80.74 | -0.2 °C | – | – | – | – |
| CCCn1c(NC(=O)CC)nc2ccccc21 [Fragment Z29077827] | 54.53 | -0.6 °C | 48.46 | -0.7 °C | – | – | – | – |
| CCOc1ccccc1N1CCNCC1.Cl [Fragment Z425387594] | – | – | – | – | 98.47 | -0.1 °C | 61.98 | 0 °C |
| OCc1cn(-c2ccc(Cl)cc2)nn1 [Fragment Z1374778753] | – | – | – | – | 169.5 | – | 114.8 | – |
| Cc1nccn1Cc1cccc(C#N)c1 [Fragment Z319545618] | – | – | – | – | 30.53 | -0.3 °C | 11.39 | 0 °C |
| CN1CCC(Oc2cccc(F)c2)C1=O (centres unmarked) [Fragment Z1217960891] | 74.94 | -0.4 °C | 55.59 | -0.4 °C | – | – | – | – |
| CCc1csc(-c2c[nH]cn2)n1 [Fragment Z1530301542] | 39.06 | -0.1 °C | 45.06 | 0.1 °C | – | – | – | – |
| CCc1nnc(NC(=O)C2CCCO2)s1 (centres unmarked) [Fragment Z26823525] | 54.46 | -0.2 °C | 48.81 | -0.4 °C | – | – | – | – |
| CC(=O)N1C[C@H]2CC[C@H]1c1ccccc12 [Fragment Z2017861827] | – | – | – | – | 37.47 | -0.7 °C | 47.45 | -0.2 °C |
| O=C(CN1CCCC1=O)Nc1nccs1 [Fragment Z79432418] | – | – | – | – | 63.39 | -0.4 °C | 61.55 | -0.3 °C |
| O=C(O)COc1ccc(F)cc1 [Fragment Z56978034] | – | – | – | – | 107.1 | -0.2 °C | 99.74 | 0 °C |
| CS(=O)(=O)NCCc1ccccc1 [Fragment Z45617795] | 50.84 | -0.3 °C | 53.67 | -0.2 °C | – | – | – | – |
| CC(C)N(C)c1ncnc2c1cnn2C [Fragment Z328695024] | 47.77 | -0.6 °C | 48.11 | -0.6 °C | – | – | – | – |
| CN(C)c1noc(C2CCNCC2)n1 [Fragment Z1742054999] | – | – | – | – | 84.81 | 0 °C | 41.66 | -0.2 °C |
| CS(=O)(=O)NCC1CCNCC1 [Fragment Z1741966151] | – | – | – | – | 29.2 | 0.2 °C | 18.48 | 0.1 °C |
| COC1CN(Cc2cncs2)CCC1C (centres unmarked) [Fragment Z1787761777] | -42.9 | -1.6 °C | -50.75 | -0.3 °C | – | – | – | – |
| CN1CCOC(CNc2nccs2)C1 (centres unmarked) [Fragment Z1002247062] | 105 | -0.1 °C | 20.86 | -0.2 °C | – | – | – | – |

| Structure (SMILES) | SPR mTRIM21 (Response) [1, 5] | Tm-shift mTRIM21 ([2]; 2 mM compound, 8 μM protein) | SPR hTRIM21 (Response) [3, 5] | Tm-Shift hTRIM21 ([4]; 2 mM compound, 8 μM protein) | SPR mTRIM21 (Response) [1] | Tm-shift mTRIM21 [2] | SPR hTRIM21 (Response) [3] | Tm-Shift hTRIM21 [4] |
| --- | --- | --- | --- | --- | --- | --- | --- | --- |
| CCC(NC)c1ccncc1 (centres unmarked) [Fragment Z1250132788] | 53.11 | 0 °C | 50.74 | -0.1 °C | – | – | – | – |
| CC#CCN(C)C1CCS(=O)(=O)CC1 [Fragment Z1318110042] | 68.46 | 0.1 °C | 20.83 | 0 °C | – | – | – | – |
| c1cc(NCC2CCCO2)ccn1 (centres unmarked) [Fragment Z1267882044] | 85.46 | 0 °C | 39.64 | -0.1 °C | – | – | – | – |
| Cc1c(Cl)cccc1NC(=O)[C@@H]1CCCO1 [Fragment Z1545312521] | 31.58 | -0.9 °C | 24.5 | -0.7 °C | – | – | – | – |
| CNS(=O)(=O)Cc1cc(C)on1 [Fragment Z763030030] | – | – | – | – | 42.23 | -0.2 °C | 44.17 | -0.1 °C |
| Cc1cc(N2CCNCC2)nc(C)n1 [Fragment Z274575916] | 164.1 | 0 °C | 76.44 | 0.2 °C | – | – | – | – |
| CN(CC(=O)N1CCCCC1)S(C)(=O)=O [Fragment Z363071686] | – | – | – | – | 39.85 | -0.1 °C | 20.46 | -0.2 °C |
| COCC(=O)NCc1ccccc1 [Fragment Z31478538] | 37.9 | -0.3 °C | 38.23 | -0.3 °C | – | – | – | – |
| CN(C)C(=O)N1CCOCC12CCOC2 (centres unmarked) [Fragment Z1998104358] | – | – | – | – | 24.94 | 0 °C | 21.66 | 0.1 °C |
| NC(=S)Nc1ccccc1OC(F)(F)F [Fragment Z291279160] | – | – | – | – | 37.66 | -0.4 °C | 45.42 | -0.2 °C |
| O=C(NC1CC1)c1ccc2c(c1)OCO2 [Fragment Z32367954] | – | – | – | – | 59.37 | -0.3 °C | 68.73 | -0.6 °C |
| CC(NS(C)(=O)=O)c1ccccc1Cl (centres unmarked) [Fragment Z133729708] | 60.52 | -0.8 °C | 74.68 | -0.7 °C | – | – | – | – |
| CN(C)C(=O)c1ccc2c(c1)CCCN2 [Fragment Z1222331430] | – | – | – | – | 51.36 | -0.2 °C | 70.74 | -0.2 °C |
| CC(NC(=O)C1CC1)c1cccnc1 (centres unmarked) [Fragment Z220996120] | 171.5 | -0.1 °C | 149.8 | 0 °C | – | – | – | – |
| O=C(c1ccco1)N1CCN(C(=O)C2CC2)CC1 [Fragment Z32327641] | 37.82 | -0.2 °C | 35.48 | 0 °C | – | – | – | – |
| O=C(c1csnn1)N1CCOCC1 [Fragment Z741055844] | 32.54 | -0.2 °C | 28.98 | -0.1 °C | – | – | – | – |
| Cc1nc2[nH]c(C(C)C)cc(=O)n2n1 [Fragment Z111634612] | 63.45 | -0.4 °C | 61.58 | -0.4 °C | – | – | – | – |
| O=C(c1ccc2c(c1)OCO2)N1CCCCCC1 [Fragment Z31432226] | – | -0.6 °C | – | -0.8 °C | – | – | – | – |
| CCCc1cc(=O)oc2cc(OC(C)=O)ccc12 [Fragment Z29634868] | 78.57 | – | 95.03 | – | – | – | – | – |
